Source: ChEMBL document CHEMBL5209897, “Affinity Phenotypic Cellular Literature for EUbOPEN Chemogenomics Library wave 3” (2023)
pEC50, pIC50: −log10 of the molar value.

Tests used:
[1] = target: Integrin alpha-L (Homo sapiens, UniProt P20701); assay type: functional, cell-based; parameters: mode of action Inhibitor, recommended concentration 100 nM
[2] = target: Serine/threonine-protein kinase 3 (Homo sapiens, UniProt Q13188)
[3] = target: Serine/threonine-protein kinase 4 (Homo sapiens, UniProt Q13043); assay: Affinity Phenotypic Cellular interaction (Immunoblotting (phosphorylation of endogenous MOB1; LATS1/2; and YAP in human liver carcinoma (HepG2) cells)) EUB0000178b STK4; parameters: mode of action Inhibitor, recommended concentration 100 nM
[4] = target: MAP kinase-activated protein kinase 5 (Homo sapiens, UniProt Q8IW41); assay: Affinity Phenotypic Cellular interaction (Cell-based TNFa assay (MesoScale Discovery; inhibition of LPS stimulated TNFa production in human U937 cells)) EUB0000056c MAPKAPK5; assay type: functional; parameters: mode of action Inhibitor, recommended concentration 1 uM
[5] = target: MAP kinase-activated protein kinase 3 (Homo sapiens, UniProt Q16644); assay: Affinity Phenotypic Cellular interaction (Cell-based TNFa assay (MesoScale Discovery; inhibition of LPS stimulated TNFa production in human U937 cells)) EUB0000056c MAPKAPK3; assay type: functional; parameters: mode of action Inhibitor, recommended concentration 1 uM
[6] = target: MAP kinase-activated protein kinase 2 (Homo sapiens, UniProt P49137); assay: Affinity Phenotypic Cellular interaction (Cell-based TNFa assay (MesoScale Discovery; inhibition of LPS stimulated TNFa production in human U937 cells)) EUB0000056c MAPKAPK2; assay type: functional; parameters: mode of action Inhibitor, recommended concentration 1 uM
[7] = target: Activin receptor type-1B (Homo sapiens, UniProt P36896); assay: Affinity Phenotypic Cellular interaction (Western blot (inhibition of SMAD2/3 phosphorylation)) EUB0000312b ACVR1B; parameters: mode of action Inhibitor, recommended concentration 1 uM
[8] = target: C-C chemokine receptor type 1 (Homo sapiens, UniProt P32246); assay: Affinity Phenotypic Cellular interaction (Functional cellular assay (measuring calcium flux in response to MIP-1a in CCR1-transfected cells)) EUB0000343a CCR1; assay type: cell-based; parameters: mode of action Negative control for BI-639667, recommended concentration 100 nM
[9] = target: Histone acetyltransferase p300 (Homo sapiens, UniProt Q09472); assay: Affinity Phenotypic Cellular interaction (Inhibition of H3K27Ac (DU-145 cells)) EUB0000326a EP300
[10] = target: CREB-binding protein (Homo sapiens, UniProt Q92793); assay: Affinity Phenotypic Cellular interaction (Inhibition of H3K27Ac (DU-145 cells)) EUB0000326a CREBBP
[11] = target: T1, Phosphatidylinositol 4,5-bisphosphate 3-kinase catalytic subunit gamma isoform (Homo sapiens, UniProt P48736); conditions: Affinity Phenotypic Cellular Source Knowledge https://doi.org/10.1093/jnci/djj133
Target sequence in this assay (P48736 whole entry, looked up, canonical isoform): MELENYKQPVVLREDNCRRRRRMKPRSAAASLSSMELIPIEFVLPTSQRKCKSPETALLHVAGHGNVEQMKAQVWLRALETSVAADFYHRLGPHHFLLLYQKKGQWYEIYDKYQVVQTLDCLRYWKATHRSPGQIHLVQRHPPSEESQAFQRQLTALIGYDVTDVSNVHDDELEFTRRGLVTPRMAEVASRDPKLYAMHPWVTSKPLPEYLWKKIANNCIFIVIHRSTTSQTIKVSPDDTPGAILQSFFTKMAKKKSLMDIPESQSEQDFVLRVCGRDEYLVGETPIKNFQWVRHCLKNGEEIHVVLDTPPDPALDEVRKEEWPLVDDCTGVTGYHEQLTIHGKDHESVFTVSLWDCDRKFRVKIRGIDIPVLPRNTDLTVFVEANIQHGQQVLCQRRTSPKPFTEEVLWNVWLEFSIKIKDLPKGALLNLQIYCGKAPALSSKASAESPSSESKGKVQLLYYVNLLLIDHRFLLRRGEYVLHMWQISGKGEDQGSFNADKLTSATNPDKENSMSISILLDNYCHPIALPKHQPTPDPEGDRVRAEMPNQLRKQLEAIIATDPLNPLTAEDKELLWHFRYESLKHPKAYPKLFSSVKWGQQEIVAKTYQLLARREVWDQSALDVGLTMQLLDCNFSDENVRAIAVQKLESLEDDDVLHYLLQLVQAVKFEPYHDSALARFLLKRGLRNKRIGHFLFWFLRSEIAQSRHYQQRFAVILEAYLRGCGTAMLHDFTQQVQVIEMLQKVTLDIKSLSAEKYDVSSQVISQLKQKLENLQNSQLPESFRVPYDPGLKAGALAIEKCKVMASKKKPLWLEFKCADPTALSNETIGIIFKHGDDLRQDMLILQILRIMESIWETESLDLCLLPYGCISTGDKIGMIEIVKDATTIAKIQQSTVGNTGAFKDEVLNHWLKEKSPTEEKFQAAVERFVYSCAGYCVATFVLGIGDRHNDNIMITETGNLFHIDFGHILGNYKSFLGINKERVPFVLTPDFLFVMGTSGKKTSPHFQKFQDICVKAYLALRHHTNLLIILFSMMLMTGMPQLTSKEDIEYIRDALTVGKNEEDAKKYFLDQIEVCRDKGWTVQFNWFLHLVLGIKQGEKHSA

[12] = target: Phosphatidylinositol 4,5-bisphosphate 3-kinase catalytic subunit beta isoform (Homo sapiens, UniProt P42338); conditions: Affinity Phenotypic Cellular Source Knowledge https://doi.org/10.1093/jnci/djj133
[13] = target: Phosphatidylinositol 4,5-bisphosphate 3-kinase catalytic subunit delta isoform (Homo sapiens) (UniProt O00329); conditions: Affinity Phenotypic Cellular Source Knowledge https://doi.org/10.1093/jnci/djj133
[14] = target: Phosphatidylinositol 4,5-bisphosphate 3-kinase catalytic subunit alpha isoform (Homo sapiens) (UniProt P42336); conditions: Affinity Phenotypic Cellular Source Knowledge https://doi.org/10.1093/jnci/djj133
[15] = target: Macrophage migration inhibitory factor (Homo sapiens) (UniProt P14174); assay: Affinity Phenotypic Cellular interaction (Cell viability WST-8 assay (measuring inhibition of apoptosis)) EUB0001135a MIF; assay type: functional; parameters: recommended concentration 1 uM; conditions: Affinity Phenotypic Cellular Source Knowledge 21168764, https://www.sgc-ffm.uni-frankfurt.de/#!specificprobeoverview/BTZO-1
[16] = target: T1, Phosphatidylinositol 4,5-bisphosphate 3-kinase catalytic subunit gamma isoform; assay: Affinity Phenotypic Cellular interaction (Inhibition of pAKT-S473 in T47D breast cancer lines) EUB0000691a PIK3CG; parameters: mode of action Inhibitor, recommended concentration 100 nM
Target sequence in this assay (P48736 whole entry, canonical isoform): as the sequence (P48736 whole entry, looked up, canonical isoform) above

[17] = target: Phosphatidylinositol 3-kinase catalytic subunit type 3 (Homo sapiens, UniProt Q8NEB9); assay: Affinity Phenotypic Cellular interaction (Inhibition of PtdIns(3)P levels (at endosomes probed by suppression of endosomal localization of GFP–2×FYVEHrs; U2OS cells)) EUB0000631a PIK3C3; assay type: functional; parameters: mode of action Inhibitor, recommended concentration 1 uM
[18] = target: Mitogen-activated protein kinase kinase kinase kinase 2 (Homo sapiens, UniProt Q12851); assay: Affinity Phenotypic Cellular interaction (Western Blot (inhibition in IL-1-induced phosphorylation of MAPK14)) EUB0000238b MAP4K2; parameters: mode of action Inhibitor, recommended concentration 1 uM
[19] = target: Histone-lysine N-methyltransferase EHMT1 (Homo sapiens, UniProt Q9H9B1); assay: Affinity Phenotypic Cellular interaction (In-Cell Western assay (H3K9Me2 antibody immunofluorescence in PC3 cells)) EUB0000212b EHMT1/GLP; assay type: cell-based; parameters: mode of action Inhibitor, recommended concentration 1 uM
[20] = target: Bromodomain adjacent to zinc finger domain protein 2A (Homo sapiens, UniProt Q9UIF9); assay: Affinity Phenotypic Cellular interaction (FRAP assay (displacement of BAZ2A/B from chromatin in SAHA-treated human U2OS cells, transfected with GFP-BAZ2A fusion construct)) EUB0000267b BAZ2A; parameters: mode of action Negative control for GSK2801, recommended concentration 1 uM
[21] = target: Serine/threonine-protein kinase PLK1 (Homo sapiens, UniProt P53350); assay: Affinity Phenotypic Cellular interaction (Immunoblot activity assay (using LAP-Mps1 WT in U2OS cells)) EUB0000608a PLK1; assay type: cell-based; parameters: mode of action Inhibitor, recommended concentration 1 uM
Chain of Serine/threonine-protein kinase PLK1 (P53350 whole entry): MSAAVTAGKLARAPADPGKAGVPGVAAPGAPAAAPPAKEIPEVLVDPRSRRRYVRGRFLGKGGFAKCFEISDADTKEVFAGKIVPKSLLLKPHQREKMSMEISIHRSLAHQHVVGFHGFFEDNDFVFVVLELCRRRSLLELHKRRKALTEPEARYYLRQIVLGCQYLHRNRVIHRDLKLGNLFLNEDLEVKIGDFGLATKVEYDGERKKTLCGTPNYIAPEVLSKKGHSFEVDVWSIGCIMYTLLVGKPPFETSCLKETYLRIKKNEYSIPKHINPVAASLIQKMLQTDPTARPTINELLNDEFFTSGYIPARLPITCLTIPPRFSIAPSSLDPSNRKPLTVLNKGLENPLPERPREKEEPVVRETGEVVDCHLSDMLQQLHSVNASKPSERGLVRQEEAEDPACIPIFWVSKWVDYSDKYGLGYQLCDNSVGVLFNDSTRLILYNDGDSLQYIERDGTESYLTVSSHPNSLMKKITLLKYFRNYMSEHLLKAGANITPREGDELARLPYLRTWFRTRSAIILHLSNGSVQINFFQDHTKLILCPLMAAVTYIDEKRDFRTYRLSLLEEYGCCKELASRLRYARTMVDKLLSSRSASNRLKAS

Chain of MAP kinase-activated protein kinase 5 (Q8IW41 whole entry): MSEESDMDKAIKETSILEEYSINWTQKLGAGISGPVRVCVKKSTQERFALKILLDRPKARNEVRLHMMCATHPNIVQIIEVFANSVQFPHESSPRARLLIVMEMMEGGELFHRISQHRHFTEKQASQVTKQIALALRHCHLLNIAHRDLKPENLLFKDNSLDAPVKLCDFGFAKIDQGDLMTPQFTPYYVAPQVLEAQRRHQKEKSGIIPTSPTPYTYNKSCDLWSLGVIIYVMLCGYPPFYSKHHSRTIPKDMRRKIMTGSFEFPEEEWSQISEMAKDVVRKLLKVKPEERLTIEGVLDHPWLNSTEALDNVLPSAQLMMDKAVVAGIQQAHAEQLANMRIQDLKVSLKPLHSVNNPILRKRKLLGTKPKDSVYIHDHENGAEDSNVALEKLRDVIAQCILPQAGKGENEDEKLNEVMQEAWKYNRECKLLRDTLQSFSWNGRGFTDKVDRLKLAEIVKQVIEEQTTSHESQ
Chain of MAP kinase-activated protein kinase 3 (Q16644 whole entry): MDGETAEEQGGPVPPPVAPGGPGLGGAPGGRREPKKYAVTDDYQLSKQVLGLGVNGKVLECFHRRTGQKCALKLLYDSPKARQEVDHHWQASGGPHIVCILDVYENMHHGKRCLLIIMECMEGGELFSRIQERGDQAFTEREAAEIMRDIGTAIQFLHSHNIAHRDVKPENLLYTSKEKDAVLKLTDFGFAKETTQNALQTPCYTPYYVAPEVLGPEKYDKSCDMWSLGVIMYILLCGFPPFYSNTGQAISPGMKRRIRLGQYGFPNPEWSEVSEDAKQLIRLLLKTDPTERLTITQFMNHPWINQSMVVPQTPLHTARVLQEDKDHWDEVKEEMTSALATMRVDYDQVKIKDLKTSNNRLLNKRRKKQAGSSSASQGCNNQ
Chain of Integrin alpha-L (P20701 whole entry): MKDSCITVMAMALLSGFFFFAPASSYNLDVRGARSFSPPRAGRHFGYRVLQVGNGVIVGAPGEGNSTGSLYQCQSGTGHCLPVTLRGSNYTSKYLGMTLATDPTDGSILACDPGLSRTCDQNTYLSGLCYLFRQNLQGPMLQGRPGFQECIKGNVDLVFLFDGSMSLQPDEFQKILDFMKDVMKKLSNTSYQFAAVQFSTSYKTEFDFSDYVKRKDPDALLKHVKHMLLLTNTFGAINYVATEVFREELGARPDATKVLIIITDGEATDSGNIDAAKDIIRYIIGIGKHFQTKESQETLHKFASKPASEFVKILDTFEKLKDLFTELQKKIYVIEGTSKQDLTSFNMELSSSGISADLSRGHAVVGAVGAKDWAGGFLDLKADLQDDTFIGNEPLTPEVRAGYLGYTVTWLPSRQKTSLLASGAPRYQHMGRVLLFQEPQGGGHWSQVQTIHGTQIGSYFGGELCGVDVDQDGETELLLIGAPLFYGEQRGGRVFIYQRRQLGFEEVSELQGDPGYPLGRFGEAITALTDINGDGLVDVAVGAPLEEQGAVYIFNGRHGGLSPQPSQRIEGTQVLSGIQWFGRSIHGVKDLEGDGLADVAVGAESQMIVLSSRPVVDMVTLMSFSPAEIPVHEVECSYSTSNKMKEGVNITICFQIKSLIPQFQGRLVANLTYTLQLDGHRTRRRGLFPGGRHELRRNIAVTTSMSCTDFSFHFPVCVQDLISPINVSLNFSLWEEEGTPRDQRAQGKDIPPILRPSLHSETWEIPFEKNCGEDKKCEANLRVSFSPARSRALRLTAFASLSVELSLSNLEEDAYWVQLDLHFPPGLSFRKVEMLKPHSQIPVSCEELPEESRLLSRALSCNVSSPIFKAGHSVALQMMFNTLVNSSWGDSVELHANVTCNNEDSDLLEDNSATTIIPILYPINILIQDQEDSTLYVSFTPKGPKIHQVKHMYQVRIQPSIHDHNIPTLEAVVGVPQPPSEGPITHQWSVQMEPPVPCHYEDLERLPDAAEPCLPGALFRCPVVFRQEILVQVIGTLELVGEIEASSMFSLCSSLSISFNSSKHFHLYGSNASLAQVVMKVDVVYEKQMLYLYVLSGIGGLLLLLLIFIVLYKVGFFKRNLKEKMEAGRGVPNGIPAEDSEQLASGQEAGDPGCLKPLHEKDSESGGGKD
Chain of Phosphatidylinositol 4,5-bisphosphate 3-kinase catalytic subunit delta isoform (Homo sapiens) (O00329 whole entry, canonical isoform): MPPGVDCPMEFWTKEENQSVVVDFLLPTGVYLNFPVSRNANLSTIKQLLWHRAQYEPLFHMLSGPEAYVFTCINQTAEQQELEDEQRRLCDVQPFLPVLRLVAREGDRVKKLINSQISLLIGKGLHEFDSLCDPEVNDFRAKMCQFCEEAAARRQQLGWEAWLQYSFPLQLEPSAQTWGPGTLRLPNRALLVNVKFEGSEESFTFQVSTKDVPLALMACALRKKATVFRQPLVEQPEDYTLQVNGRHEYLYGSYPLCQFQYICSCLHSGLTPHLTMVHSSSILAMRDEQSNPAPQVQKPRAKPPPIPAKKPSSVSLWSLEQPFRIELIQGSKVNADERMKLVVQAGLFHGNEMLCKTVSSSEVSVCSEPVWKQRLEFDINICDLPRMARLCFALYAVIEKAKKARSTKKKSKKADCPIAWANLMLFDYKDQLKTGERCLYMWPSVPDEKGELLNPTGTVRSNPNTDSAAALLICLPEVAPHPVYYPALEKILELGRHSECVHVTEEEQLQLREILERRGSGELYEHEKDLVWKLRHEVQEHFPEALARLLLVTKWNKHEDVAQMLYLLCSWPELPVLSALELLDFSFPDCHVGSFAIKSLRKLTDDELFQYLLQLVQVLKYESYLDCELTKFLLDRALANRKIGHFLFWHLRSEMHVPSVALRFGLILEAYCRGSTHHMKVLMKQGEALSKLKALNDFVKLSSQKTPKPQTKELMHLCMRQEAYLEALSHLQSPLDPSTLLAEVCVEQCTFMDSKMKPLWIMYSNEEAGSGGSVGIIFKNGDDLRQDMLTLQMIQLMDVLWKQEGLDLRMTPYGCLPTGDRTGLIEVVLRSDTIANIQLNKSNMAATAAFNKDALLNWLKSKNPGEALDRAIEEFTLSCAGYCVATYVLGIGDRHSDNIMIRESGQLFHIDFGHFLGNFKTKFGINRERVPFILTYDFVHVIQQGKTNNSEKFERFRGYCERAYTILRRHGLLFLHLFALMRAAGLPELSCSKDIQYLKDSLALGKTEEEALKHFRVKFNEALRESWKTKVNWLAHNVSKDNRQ
Chain of Macrophage migration inhibitory factor (Homo sapiens) (P14174 whole entry, canonical isoform): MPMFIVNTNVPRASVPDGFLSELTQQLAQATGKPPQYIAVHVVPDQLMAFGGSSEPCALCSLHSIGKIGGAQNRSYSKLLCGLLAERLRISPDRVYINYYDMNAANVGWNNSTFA

Work on C[C@H](NC(=O)c1cnc2n1[C@](C)(Cc1ccc(C#N)cc1)C(=O)N2c1cc(Cl)c(F)c(Cl)c1)C(=O)NC1(c2ccccn2)CC1 [BI 1950] yielded a pIC50 [1] of 8.52.

For CN1C(=O)c2sccc2N(C)c2nc(Nc3ccc(S(N)(=O)=O)cc3)ncc21, the pEC50 [2] was under 7.00 and the pEC50 [3] was under 7.00.

Cc1ccc(-c2ccc3c(ccc4sc5c(c43)NC[C@@H](C)NC5=O)n2)cn1 showed a pIC50 [4] of 6.80, a pIC50 [5] of 6.80 and a pIC50 [6] of 6.80.

Cc1cnc(-c2cc(Cl)ccc2F)cc1-n1c(=O)n(CC(N)=O)c2cnccc21 [TP-008] showed a pEC50 [7] of under 6.00.

In the case of CS(=O)(=O)NCC[C@H](NC(=O)c1cncc2c1cnn2-c1ccc(F)cc1)c1ccnc(S(C)(=O)=O)c1 [BI 9307], the pIC50 [8] was under 5.52.

Work on CNC(=O)Nc1ccc2c(c1)[C@@]1(CC2)OC(=O)N(CC(=O)N(Cc2ccc(F)cc2)[C@@H](C)C(F)(F)F)C1=O [A-486] yielded a pIC50 [9] of under 5.00 and a pIC50 [10] of under 5.00.

For FC(F)c1nc2ccccc2n1-c1nc(N2CCOCC2)nc(N2CCOCC2)n1, the GI50 [11] was 28 nM, the GI50 [12] was 28 nM and the GI50 [13] was 28 nM. The GI50 [14] was 28 nM.

Work on O=C1NC(c2ccccn2)Sc2ccccc21 (stereo unspecified) yielded an MEC1.5 [15] of over 1000 nM.

Molecule COc1ncc(-c2ccc3nccc(-c4ccnnc4)c3c2)cc1NS(=O)(=O)c1ccc(F)cc1F [OMIPALISIB] has a pIC50 [16] of 9.39.

Work on CC(C)(O)CNc1ncc(-c2ccnc(Nc3ccnc(Cl)c3)n2)c(CC2CC2)n1 yielded a pIC50 [17] of over 7.00.

Work on CNc1cc(Oc2cc(C(=O)Nc3cc(N4CCN(C)CC4)cc(C(F)(F)F)c3)ccc2C)ncn1 yielded a pEC50 [18] of 6.30.

Molecule COc1cc2c(cc1OCCCN1CCCC1)N=C(N)C21CCC1 has a pEC50 [19] of over 5.52.

CCCOc1ccn2c(C(C)=O)cc(-c3cccc(OC)c3)c2c1 showed a pIC50 [20] of under 4.00.

CCOc1cc(N2CCC(O)CC2)ccc1Nc1ncc2c(n1)N(C1CCCC1)CCC(=O)N2C showed a pIC50 [21] of 6.80.
